Assay results published in patent publication US20110183978A1, “Phenylpyri(mi)dinylazoles” (Bayer CropScience AG, priority 2009, published 2011).

Tests used:
Alternaria solani = assay: Example M: in vivo test on Alternaria solani (leaf blotch disease/tomato/protective); conditions: 168 h, tomato, protective, 500 ppm active substance, assessed 7 days after inoculation, read-out: % Wirkungsgrad (activity level)
Protocol: Solvent: 49 parts by weight N,N-dimethylformamide Emulsifier: 1 part by weight alkylaryl polyglycol ethers For the preparation of a suitable active substance preparation, 1 part by weight of active substance is mixed with the stated quantities of solvent and emulsifier and the concentrate is diluted to the desired concentration with water. For the testing for protective activity, young tomato plants are sprayed with the active substance preparation at the stated application dosage. […] 7 days after the inoculation, the assessment takes place.

[1] = LogPA (logP of the stated pure compound or, in a mixture, of the main isomer, 1-substituted 3-aryl-1H-pyrazole)

Row | SMILES | chromatographic logP (physchem; LogPA) | pest or weed control at 500 ppm (Alternaria solani) [%] | also measured
1 | CC(C1CC1)n1cc(-c2ccncc2)c(-c2ccc(F)cc2)n1 (stereo not shown) [Compound 305] | 1.59 | 100 | 
2 | CCC(=O)Nc1cc(-c2cn(Cc3cccc(C#N)c3)nc2-c2ccc(F)cc2)ccn1 [Compound 302] | 2.38 | 95 | 
3 | CC(Nc1cc(-c2cn(C)nc2-c2ccc(F)cc2)ccn1)C(F)(F)F (stereo not shown) [Compound 319] | 1.73 | 90 | 
4 | CCC(=O)Nc1nccc(-c2cn(CC(C)C)nc2-c2ccc(F)cc2)n1 [Compound 365] | 2.7 | 80 | 
5 | O=C(Nc1cc(-c2cn(CC(F)F)nc2-c2ccc(F)cc2)ccn1)c1ccsc1 [Compound 235] | 2.69 | 94 | 
6 | CCOC(=O)CC(CC)CC(=O)Nc1cc(-c2cn(CC)nc2-c2ccc(F)cc2)ccn1 (stereo not shown) [Compound 332] | 2.9 | 90 | 
7 | C[C@H](O)C(=O)Nc1cc(-c2cn(C)nc2-c2ccc(F)cc2)ccn1 [Compound 353] | 1.57 | 80 | 
8 | Cc1cc(C(=O)Cn2cc(-c3ccncc3)c(-c3ccc(F)cc3)n2)nn1C [Compound 144] |  | 94 | chromatographic logP (physchem; [1]): 1.31
9 | CCOC(=O)Cn1cc(-c2ccncc2)c(-c2ccc(F)cc2)n1 [Compound 170] | 1.31 | 78 | 
10 | CC(C)=CCn1ncc(-c2ccncc2)c1-c1ccc(F)cc1 [Compound 25] |  | 90 | chromatographic logP (physchem; [1]): 2.68
11 | Fc1ccc(-c2nn(CC3OCCO3)cc2-c2ccncc2)cc1 [Compound 275] | 1.02 | 90 | 
12 | CCC(=O)Nc1cc(-c2cn(C(C)c3ccccc3F)nc2-c2ccc(F)cc2)ccn1 (stereo not shown) [Compound 248] | 3.03 | 94 | 
13 | CC(C)Nc1nccc(-c2cn(CCC#N)nc2-c2ccc(F)cc2)n1 [Compound 362] | 1.74 | 80 | 
14 | O=C(Nc1cc(-c2cn(OC3CCCC3)nc2-c2ccc(F)cc2)ccn1)C1CC1 [Compound 269] | 3.35 | 89 | 
15 | CC(C)Nc1nccc(-c2cn(C)nc2-c2ccc(F)cc2)n1 [Compound 361] | 1.65 | 70 | 
16 | COCC(=O)Nc1cc(-c2cn(C(C)c3ccccc3F)nc2-c2ccc(F)cc2)ccn1 (stereo not shown) [Compound 244] | 3.5 | 94 | 
17 | C#CCn1cc(-c2ccnc(NC(C)C)n2)c(-c2ccc(F)cc2)n1 [Compound 363] | 1.99 | 90 | 
18 | CC(Nc1cc(-c2cn(CC3CC3)nc2-c2ccc(F)cc2)ccn1)C(F)(F)F (stereo not shown) [Compound 317] | 2.33 | 70 | 
19 | CC(c1ccccc1F)n1cc(-c2ccnc(NC(=O)C3CC3)c2)c(-c2ccc(F)cc2)n1 (stereo not shown) [Compound 259] | 3.13 | 90 | 
20 | CC(C)Cn1cc(-c2ccnc(NCC3CC3)n2)c(-c2ccc(F)cc2)n1 [Compound 273] | 2.55 | 90 | 
21 | C#CCNc1nccc(-c2c[nH]nc2-c2ccc(F)cc2)n1 [Compound 173] | 1.44 | 94 | 
22 | CC(C)n1cc(-c2ccnc(NC(C)C(F)(F)F)c2)c(-c2ccc(F)cc2)n1 (stereo not shown) [Compound 318] | 2.26 | 80 | 
23 | CCn1cc(-c2ccnc(NC(C)C)n2)c(-c2ccc(F)cc2)n1 [Compound 370] | 1.91 | 95 | 
24 | COCC(=O)Nc1cc(-c2cn(C3CC3)nc2-c2ccc(F)cc2)ccn1 [Compound 321] | 2.37 | 70 | 
25 | COCCn1cc(Br)c(-c2ccc(F)cc2)n1 [[VI-6], 4-Bromo-3-(4-fluorophenyl)-1-(2-methoxyethyl)-1H-pyrazole] |  |  | chromatographic logP (physchem; pH 2.3, LogP (pH 2.3)): 3.08; chromatographic logP (physchem; pH 2.7, logP (pH 2.7)): 3.08
26 | N#CCCn1cc(Br)c(-c2ccc(F)cc2)n1 [[VI-23], 3-[4-bromo-3-(4-fluorophenyl)-1H-pyrazol-1-yl]propanonitrile] |  |  | chromatographic logP (physchem; pH 2.3, LogP (pH 2.3)): 2.69; chromatographic logP (physchem; pH 2.7, logP (pH 2.7)): 2.69
27 | O=C(Cc1ccnc(Cl)n1)c1ccc(F)cc1 [[XLIII-1], 2-(2-Chloropyrimidin-4-yl)-1-(4-fluorophenyl)ethanone] |  |  | chromatographic logP (physchem; pH 2.7, logP (pH 2.7)): 2.27
28 | Fc1ccc(-c2nn(Cc3ccc(OC(F)F)cc3)cc2-c2ccncc2)cc1 [Compound 109] |  |  | chromatographic logP (physchem; [1]): 1.88

Row | SMILES | chromatographic logP (physchem; LogPA) | pest or weed control at 500 ppm (Alternaria solani) [%] | also measured
29 | Fc1ccc(-c2c(-c3ccncc3)cnn2C2CCCCO2)cc1 (stereo not shown) [[X-1], 4-[5-(4-Fluorophenyl)-1-(tetrahydro-2H-pyran-2-yl)-1H-pyrazol-4-yl]pyridine] |  |  | chromatographic logP (physchem; pH 2.3, LogP (pH 2.3)): 1.23; chromatographic logP (physchem; pH 2.7, logP (pH 2.7)): 1.23
30 | c1cnc2c(-c3c(-c4ccncc4)cnn3C3CCCCO3)cccc2c1 (stereo not shown) [Compound 99, 8-[4-(pyridin-4-yl)-1-(tetrahydro-2H-pyran-2-yl)-1H-pyrazol-5-yl]quinoline] |  |  | chromatographic logP (physchem; [1]): 1.09
31 | CC(C)Nc1nccc(-c2cn(CC(F)F)nc2-c2ccc(F)cc2)n1 [Compound 364] | 2.05 | 95 | 
32 | CC1(C)OB(c2ccnc(NC(=O)C3CC3)c2)OC1(C)C [[XV-a-7], N-[4-(4,4,5,5-Tetramethyl-1,3,2-dioxaborolan-2-yl)pyridin-2-yl]cyclopropanecarboxamide] |  |  | chromatographic logP (physchem; pH 2.7, logP (pH 2.7)): 0
33 | N#Cc1cccc(-c2c(-c3ccncc3)cnn2C2CCCCO2)c1 (stereo not shown) [[X-11], 3-[4-(pyridin-4-yl)-1-(tetrahydro-2H-pyran-2-yl)-1H-pyrazol-5-yl]benzonitrile] |  |  | chromatographic logP (physchem; pH 2.3, LogP (pH 2.3)): 1.23
34 | FC(F)(F)c1cccc(-c2nn(C3CCCCO3)cc2-c2ccncc2)c1 (stereo not shown) [Compound 42] |  |  | chromatographic logP (physchem; [1]): 1.84
35 | Cc1csc2c(-c3cn(CC4CC4)nc3-c3ccc(F)cc3)ncnc12 [Compound 289] | 3.45 |  | 
36 | N#Cc1cccc(Cn2ncc(-c3ccncc3)c2-c2ccc(F)cc2)c1 [[I-4], 3-{[5-(4-Fluorophenyl)-4-(pyridin-4-yl)-1H-pyrazol-1-yl]methyl}benzonitrile] |  |  | chromatographic logP (physchem; pH 2.7, logP (pH 2.7)): 1.38
37 | CCn1cc(-c2ccnc(N)c2)c(-c2ccc(F)cc2)n1 [[III-3], 4-[1-Ethyl-3-(4-fluorophenyl)-1H-pyrazol-4-yl]pyridin-2-amine] |  |  | chromatographic logP (physchem; pH 2.3, LogP (pH 2.3)): 0.97; chromatographic logP (physchem; pH 2.7, logP (pH 2.7)): 0.97
38 | N#Cc1cccc(Cn2cc(Br)c(-c3ccc(F)cc3)n2)c1 [[VI-12], 3-{[4-Bromo-3-(4-fluorophenyl)-1H-pyrazol-1-yl]methyl}benzonitrile] |  |  | chromatographic logP (physchem; pH 2.3, LogP (pH 2.3)): 3.93; chromatographic logP (physchem; pH 2.7, logP (pH 2.7)): 3.93
39 | CC(C)n1cc(-c2ccnc(NC(c3ccccc3)C(F)(F)F)c2)c(-c2ccc(F)cc2)n1 (stereo not shown) [Compound 325] | 3.66 |  | 
40 | Fc1cccc(F)c1-c1n[nH]cc1-c1ccncc1 [[XXVII-1], 4-[3-(2,6-Difluorophenyl)-1H-pyrazol-4-yl]pyridine] |  |  | chromatographic logP (physchem; pH 2.7, logP (pH 2.7)): 1.54
41 | CC(=O)Nc1nccc(-c2cn(CC(C)C)nc2-c2ccc(F)cc2)n1 [Compound 357] | 2.44 |  | 
42 | Fc1ccc(-c2nn(Cc3ccccc3-c3ccccc3)cc2-c2ccncc2)cc1 [Compound 135] |  | 78 | chromatographic logP (physchem; [1]): 2.34
43 | CC(C)n1cc(-c2ncnc3[nH]cnc23)c(-c2ccc(F)cc2)n1 [Compound 282] | 1.79 | 70 | 
44 | Fc1ccc(-c2nn(CC3OCCO3)cc2Br)cc1 [[VI-17], 4-Bromo-1-(1,3-dioxolan-2-ylmethyl)-3-(4-fluorophenyl)-1H-pyrazole] |  |  | chromatographic logP (physchem; pH 2.3, LogP (pH 2.3)): 3.01; chromatographic logP (physchem; pH 2.7, logP (pH 2.7)): 3.01
45 | CCNC(=O)Nc1cc(-c2cn(CC(F)F)nc2-c2ccc(F)cc2)ccn1 [Compound 231] | 1.91 | 95 | 
46 | CCC(C)n1cc(-c2ccnc(NC(C)C)n2)c(-c2ccc(F)cc2)n1 (stereo not shown) [Compound 360] | 2.41 |  | 
47 | CCn1cc(-c2ccnc(NC(=O)c3ccsc3C(F)F)c2)c(-c2ccc(F)cc2)n1 [Compound 334] | 3.27 |  | 
48 | CC(C)C(=O)Nc1cc(B2OC(C)(C)C(C)(C)O2)ccn1 [[XV-a-4], 2-Methyl-N-[4-(4,4,5,5-tetramethyl-1,3,2-dioxaborolan-2-yl)pyridin-2-yl]propanamide] |  |  | chromatographic logP (physchem; pH 2.7, logP (pH 2.7)): 0.04
49 | N#Cc1cc(-c2c(-c3ccncc3)cnn2C2CCCCO2)ccc1F (stereo not shown) [Compound 61, 2-fluoro-5-[4-(pyridin-4-yl)-1-(tetrahydro-2H-pyran-2-yl)-1H-pyrazol-5-yl]benzonitrile] |  |  | chromatographic logP (physchem; [1]): 1.45
50 | CC(C)n1cc(-c2ncnc3[nH]ccc23)c(-c2ccc(F)cc2)n1 [Compound 310] | 1.61 | 95 | 
51 | Clc1cccc(-c2c(-c3ccncc3)cnn2C2CCCCO2)c1Cl (stereo not shown) [[X-20], 4-[5-(2,3-dichlorophenyl)-1-(tetrahydro-2H-pyran-2-yl)-1H-pyrazol-4-yl]pyridine] |  |  | chromatographic logP (physchem; pH 2.3, LogP (pH 2.3)): 1.66
52 | Fc1ccc(-c2nn(Cc3ccccc3F)cc2-c2ccncc2)cc1 [Compound 128] |  |  | chromatographic logP (physchem; [1]): 1.84
53 | CC(C)Cn1nc(-c2ccc(F)cc2)c(Br)c1OC(F)F [[VI-b-3], 4-Bromo-5-(difluoromethoxy)-3-(4-fluorophenyl)-1-isobutyl-1H-pyrazole] |  |  | chromatographic logP (physchem; pH 2.3, LogP (pH 2.3)): 4.91; chromatographic logP (physchem; pH 2.7, logP (pH 2.7)): 4.91
54 | CC(C)Nc1nccc(-c2c[nH]nc2-c2ccc(F)cc2)n1 [[XLVI-1], 4-[3-(4-fluorophenyl)-1H-pyrazol-4-yl]-N-isopropylpyrimidin-2-amine] |  |  | chromatographic logP (physchem; pH 2.7, logP (pH 2.7)): 1.37
55 | CCn1ncc(Br)c1-c1ccc(F)cc1 [[VI-3], 4-Bromo-1-ethyl-5-(4-fluorophenyl)-1H-pyrazole] |  |  | chromatographic logP (physchem; pH 2.7, logP (pH 2.7)): 3.15
